Reference: PubChem BioAssay AID2305 (GlaxoSmithKline (GSK), 2010)
pIC50: −log10 of the molar value.

Tested on: P. falciparum 3D7 growth, pLDH absorbance
Assay: blood-stage malaria parasite growth potency – strain 3D7, dose response (AID 2305)

In order of falling pIC50:
1. CCOc1ccc2nc(C)cc(NN=Cc3ccccc3[N+](=O)[O-])c2c1  7.52
2. COc1ccc2ccccc2c1CON1C(N)=NC(N)=NC1(C)C  7.52
3. CC(=O)Nc1ccc(Cl)c(Cl)c1  7.40
4. CN1CCOc2ccc(Nc3nnc(-c4cccc(-c5cccnc5)c4)o3)cc2C1  7.00
5. COc1ccc(C[C@H]2NC[C@H](O)[C@H]2OC(C)=O)cc1  6.85
6. Cc1nc2ccc3ccc(CNc4ccc5c(c4)CN([C@@H](CCC(=O)O)C(=O)O)C5=O)cc3c2c(=O)[nH]1  6.80
7. CCCCCCCCN1CCN(CCCCCCNc2c3ccccc3nc3ccccc23)CC1  6.80
8. Cc1nc(SCC(=O)N2CCCC2=O)c2c(C)c(C)sc2n1  6.77
9. COc1ccc(CNc2nc(NCCc3ccccc3)c3cc(OC)c(OC)cc3n2)cc1OC  6.74
10. COC(=O)CCCCCOc1cc(Cc2cnc(N)nc2N)cc(OC)c1OC  6.74
11. COc1ccc2nc3cc(Cl)ccc3c(Nc3ccc(Sc4ccc(Nc5c6ccc(Cl)cc6nc6ccc(OC)cc56)cc4)cc3)c2c1  6.70
12. CCOc1ccc(OCC(=O)Nc2nc(-c3ccc(OC)cc3)c(C)s2)cc1  6.66
13. CCOC(=O)C(=O)N1c2ccc(OCC)cc2-c2c(ssc2=S)C1(C)C  6.66
14. CC(=O)Nc1ccc(C(=O)Nc2cccc(-c3ccc(-c4nc5ccc(F)cc5[nH]4)s3)c2)cn1  6.64
15. NC(=O)c1cnc2cc(-c3ccncc3)cc(Nc3ccc(NC(=O)C4CCCCC4)cc3)c2c1  6.64
16. CCCC1(NC[C@@H](O)[C@H](Cc2ccccc2)NC(=O)c2cc(NCC)cc(N3CCCCS3(=O)=O)c2)CCCCC1  6.60
17. O=C(N1CCN(c2ccnc3cc4c(cc23)N(Cc2ccccc2)CC4)CC1)C(F)(F)F  6.59
18. CS(=O)(=O)c1ccc(CNCc2ccc(-c3ccc(-c4nc5ccc(F)cc5[nH]4)s3)cc2)cc1  6.57
19. NC(=O)c1ccc(NCC(=O)Nc2cccc(-c3cccc(-c4nc5ccc(C(F)(F)F)cc5[nH]4)c3)c2)cc1  6.57
20. Cc1cnccc1/C=C/c1cccc(OCCN2CCc3ccc(S(C)(=O)=O)cc3CC2)c1  6.57
21. CCC1(CC)C(=O)N=C(N2CCCCC2)N(C)C1=O  6.52
22. Nc1[nH]c2ccccc2c(=O)c1-c1nc2ccccc2s1  6.52
23. N=c1c2c(n(Cc3ccc(Cl)cc3Cl)c3c1CCC3)CCCC2  6.46
24. OCCN1CCN(Cc2ccc(-c3ccc(-c4nc5ccc(C(F)(F)F)cc5[nH]4)s3)cc2)CC1  6.42
25. Cc1cccc(-c2nc3[nH]c(=O)cc(NC(=O)C(C)C)n3n2)c1  6.38
26. Cc1cccc2[nH]c(-c3ccc(-c4ccc(CNCc5ccc(CN)cc5)cc4)s3)nc12  6.36
27. c1ccc(CCNc2ccnc(Nc3ccc4cn[nH]c4c3)n2)cc1  6.33
28. COCCn1c(C)cc(C(=O)CN2C(=O)NC(C)(c3ccc(C(C)(C)C)cc3)C2=O)c1C (configuration not stated)  6.33
29. Cn1cncc1C(=O)Nc1cccc(-c2cccc(-c3nc4ccc(F)cc4[nH]3)c2)c1  6.31
30. N#Cc1cnc(Nc2ccc(Oc3ccccc3)cc2)nc1Nc1cccc(S(N)(=O)=O)c1  6.26
31. COc1ccc2nccc(NC(=O)N3CCC(NCc4cc5ccccc5[nH]4)CC3)c2n1  6.25
32. c1ccc(-c2csc(Nc3nc4cc5c(cc4s3)OCO5)n2)nc1  6.24
33. CC(=O)Nc1cccc(C(=O)Nc2cccc(-c3cccc(-c4nc5ccccc5[nH]4)c3)c2)c1  6.23
34. Fc1ccc2nc(-c3ccc(-c4ccc(CN5CCN(c6cnccn6)CC5)cc4)s3)[nH]c2c1  6.21
35. Cc1nnc(-c2cccc(Nc3ccnc4cc(-c5nccs5)ccc34)c2)o1  6.20
36. COc1ccc(-c2cnn3ccc(Nc4cc(OC)c(OC)c(OC)c4)nc23)cc1OC  6.19
37. Cc1cccc2[nH]c(-c3ccc(-c4cccc(NC(=O)c5cncn5C)c4)s3)nc12  6.19
38. COc1cc2nc(N3CCC(CNC(=O)c4ccc(-c5ccc(C(=O)N(C)C)cc5OCCO)cc4)CC3)nc(N)c2cc1OC  6.19
39. O=S(=O)(NCCN1CCCC1)c1cccc(-c2ccc(CNC3Cc4ccccc4C3)cc2)c1  6.18
40. C=CCN1Cc2c(O)cccc2C(c2ccc(O)c(O)c2)C1 (configuration not stated)  6.17
41. Cc1ccccc1C1CCN(C2CCC(NC(=O)/C=C/c3ccc4c(c3)OC(F)(F)O4)CC2)CC1 (configuration not stated)  6.17
42. COc1ccc(Cl)cc1NC(=O)C(C)N1CCN(S(=O)(=O)c2ccccc2F)CC1 (configuration not stated)  6.17
43. CCc1c(C)c(C#N)c2nc3ccccc3n2c1NCc1ccco1  6.15
44. CCOc1cc(CC)ccc1C1CCN(CCN2CCC(CNC(=O)c3ccc(-c4ccc(C#N)cc4)cc3)CC2)CC1  6.15
45. O=C(Nc1cc(C(F)(F)F)cc(C(F)(F)F)c1)Nc1cc(C(F)(F)F)cc(C(F)(F)F)c1  6.14
46. COc1cc2ncnc(Nc3ccc(Br)c(Cl)c3)c2cc1OC  6.14
47. O=C(/C=C/c1ccc(Cl)c(Cl)c1)N1CCC(CN2[C@@H]3CC[C@H]2CC(c2c[nH]c4ccccc24)C3)CC1 (some centres not stated)  6.13
48. CC(C)[C@H](NC(=O)c1c(CN2CCC(N3CCCCC3)CC2)c(-c2ccccc2)nc2cc(O)ccc12)c1ccccc1  6.13
49. Cc1c(-c2cccc(Br)c2)[nH]c2nc(N)nc(N)c12  6.13
50. Cc1ccc2nc(C)cc(NN=Cc3ccc([N+](=O)[O-])o3)c2c1  6.12
51. COc1c(OC)c(OC)c2ccccc2c1CNCCCCCCNCc1c(OC)c(OC)c(OC)c2ccccc12  6.12
52. O=C(Nc1ccc(Cn2ncc(N3CCCNCC3)c(Cl)c2=O)cc1)Nc1cc(F)cc(C(F)(F)F)c1  6.11
53. O=C(Nc1cccc(F)c1)N(Cc1ccc(-c2ccc(CN3CCNCC3)cc2)cc1)C1CCN(Cc2ccccc2)CC1  6.11
54. O=C(NCc1cccc(F)c1)Nc1cccc(-c2ccc(-c3nc4ccc(C(F)(F)F)cc4[nH]3)cc2)c1  6.11
55. N=c1sc2ccccc2n1CC(O)c1ccc(Cl)c(Cl)c1 (configuration not stated)  6.10
56. Cn1nc(C(F)(F)F)c(-c2ccc(Br)cc2)c1NC(=O)Nc1ccc(F)cc1F  6.10
57. CCN(CC)CCN(Cc1ccc(-c2ccc(Br)cc2)cc1)C(=O)Cn1c(CCc2cccc(F)c2F)nc(=O)c2ccccc21  6.10
58. CC(C)CC(=O)NC1CCN(Cc2c(-c3cccs3)nc3ccccc3c2C(=O)N[C@@H](C)C2CCCCC2)CC1  6.09
59. CC(C)(C)c1ccc(CN2CCC(NC(=O)c3cc(-c4cccc(C(F)(F)F)c4)cs3)C2)cc1 (configuration not stated)  6.09
60. COc1cc2c(OC)cccc2cc1CNCCCCCCNCc1cc2cccc(OC)c2cc1OC  6.09
61. COc1ccc(NC(=O)[C@H](Cc2ccccc2)Nc2cc(C)nc(NCCc3ccccn3)n2)cc1  6.08
62. Cc1c(Cc2ccc(F)cc2)c(Cl)nc2nc(N)nc(N)c12  6.07
63. CC(CC(=O)NCC1(c2ccc(F)cc2Cl)CCOCC1)C(=O)c1ccc(Cl)cc1 (configuration not stated)  6.07
64. COc1cc(NC(=O)c2c(-c3c(F)cccc3Cl)noc2C)c(OC)cc1Cl  6.07
65. O=C(N[C@@H](Cc1ccccc1)C(=O)NCCN1CCCCC1)c1ccc(O)c(-c2cccc(C(F)(F)F)c2)c1  6.07
66. CCCNC(=O)C1Cc2cc(OC)c(OC)cc2C2(N1)C(=O)N(Cc1cccc(OC)c1)c1ccccc12 (configuration not stated)  6.07
67. COc1cc2c(c(Cl)c1OC)CCN(Cc1ccccc1)CC2c1ccc(C(N)=O)cc1 (configuration not stated)  6.07
68. Cc1ccccc1C1CCN(c2ccc(C(=O)NC3CC3)cn2)CC1  6.07
69. CC1CN(c2ccc(NC(=O)c3ccsc3)cc2C(=O)N2CCN(Cc3ccc(C(C)(C)C)cc3)CC2)CC(C)O1 (configuration not stated)  6.06
70. C=CCOc1ccc(C2C(C(=O)OC)=C(C)NC3=C2C(=O)c2ccccc23)cc1OC (configuration not stated)  6.06
71. O=C(Nc1ccc(OC2CCN(Cc3ccccc3)CC2)c(Cl)c1)c1ccsc1  6.05
72. CCOC(=O)C1=C(C)NC2=C(C(=O)CC(C)(C)C2)C1c1ccc(Cl)cc1 (configuration not stated)  6.04
73. Cc1noc(C)c1-c1ccc2c(Nc3ccccc3C(C)(C)C)c(C(=O)NCc3ccc4c(c3)OCO4)cnc2c1  6.04
74. COc1ccc2[nH]c(C(=O)Nc3cccc(-c4ccc(CN(C)C)cc4)c3)cc2c1  6.04
75. CC(C)(C)c1cc(C(=O)N2CCN(c3ncnc4ccsc34)CC2)n(Cc2ccccc2)n1  6.04
76. Cc1cc2c(cc1C(F)(F)F)N(C(=O)Nc1cccc(C(=O)NC3CCN(Cc4ccccc4)CC3)c1)CC2  6.04
77. Cc1ccc(/C=C/C(=O)NCCCCCN2CCCN(C(=O)Nc3ccc(Cl)c(Cl)c3)CC2)cc1  6.03
78. COc1ccc(CNC(=O)c2cnc3c(O)cccc3c2Nc2cccc(NC(=O)c3ccc(-c4ccccc4)cc3)c2)cc1  6.03
79. Cc1ccc(NC(=O)c2ccc3ncccc3c2)cc1OC1CCN(Cc2ccc(F)cc2)CC1  6.03
80. O=C(Nc1cccc(CN2CCCN(CC3CCCCC3)CC2)c1)c1ccc(Cl)c(Cl)c1  6.02
81. Cc1[nH]c(C)c(-c2ccc(Oc3ccc(Cl)cc3)cc2)c(=O)c1I  6.02
82. CN1CCN(Cc2ccc(-c3cc4nccc(Nc5ccc(Oc6ccccc6)cc5)c4cc3Cl)o2)CC1  6.01
83. CCCNC(=O)C1Cc2c([nH]c3cc(Br)ccc23)C2(CCN(CCc3ccccc3)CC2)N1 (configuration not stated)  6.01
84. CN1CCN(CCCN(Cc2cccc(-c3ccc(CNCc4ccc5c(c4)OCO5)cc3)c2)C(=O)CCC2CCCC2)CC1  6.00
85. CN(Cc1cnc2nc(N)nc(N)c2n1)c1ccc(C(=O)N[C@H](CCC(=O)OC(C)(C)C)C(=O)N[C@@H](CCC(=O)OC(C)(C)C)C(=O)OC(C)(C)C)cc1  5.99
86. CCN1CCN(CCNc2c3ccccc3nc3ccccc23)CC1  5.99
87. O=S(=O)(c1ccc2ccccc2c1)N1CCCN(Cc2ccc(OCCCN3CCCCC3)cc2)CC1  5.96
88. CN1CCCN(Cc2ccc(-c3cccc(NC(=O)c4ccc(F)cc4)c3)cc2)CC1  5.96
89. CCc1cc(Cc2cnc(N)nc2N)cc(CC)c1OC  5.95
90. COc1c(Br)cc(Br)cc1-c1ccc(CN2C3CCCC2CCC3)[nH]1  5.95
91. CCOc1ccccc1NC(=O)Nc1ccc2c(c1)CCN(C1CCC1)CC2  5.95
92. CCN(CC)CCCSc1ccc(-c2ccc(SCCCN(CC)CC)cc2)cc1  5.94
93. Cc1ccc(C(=O)Nc2ccc(-c3nc4ccccc4[nH]3)cc2)cc1S(=O)(=O)N1CCOCC1  5.92
94. COc1ccc(Nc2ncc3c(-c4cccc(NC(=O)Cc5ccncc5)c4)c[nH]c3n2)cc1OC  5.91
95. CCCC(=O)Nc1ccc(OCCCCN(CC(C)(C)C)c2ccc(C#N)c(C(F)(F)F)c2)cc1  5.87
96. O=C(/C=C/c1ccc(Cl)c(Cl)c1)NCCCCN1CCCN(C(=O)Nc2ccc(F)c(Cl)c2)CC1  5.82
97. Cc1nc2ccccn2c1C1(O)C(=O)Nc2c(Cl)cc(Cl)cc21 (configuration not stated)  5.80
